Marks after values point to notes of the source that are not given here. Starred links: 1 amine or outer side, 2 acyl side, 3 side chain; linkers in the order of their positions; H or OH if unused. Non-standard residues stand in square brackets, D forms with d. Residues, ends and D or L forms follow the SMILES beside them. Groups on a side chain read outwards from the residue. *: point of attachment. C18 diacid = O=C(O)CCCCCCCCCCCCCCCCC(=O)*; γGlu = O=C(O)[C@H](CCC(=O)[*:2])N[*:1]; εLys = N[C@@H](CCCCN[*:1])C(=O)[*:2]; AEEA = NCCOCCOCC(=O)O; Aib = CC(C)(N)C(=O)O
Experiment: Pharmacokinetic study in dogs after oral dosing of tablets with SNAC
Format: in vivo, Beagle dogs
Settings: dog, in vivo, po
In short: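 Male beagle dogs were fasted and given a single oral tablet containing 3-4 mg test substance with 100-300 mg SNAC, in groups of 6-8. Plasma from serial EDTA blood samples was analysed by LC-MS, and t1/2, Cmax/D, tmax and AUC/D were obtained by non-compartmental analysis.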

| Structure (SMILES) | Cmax/Dose | AUC/Dose [kg·h/L] |
| --- | --- | --- |
| CC[C@H](C)[C@H](NC(=O)[C@H](Cc1ccccc1)NC(=O)[C@H](CCC(=O)O)NC(=O)[C@H](CCCNC(=N)N)NC(=O)[C@H](C)NC(=O)[C@H](C)NC(=O)[C@H](CCC(N)=O)NC(=O)[C@H](CCCCNC(=O)[C@@H](N)CCCCNC(=O)[C@@H](N)CCCCNC(=O)CC[C@H](NC(=O)CCCCCCCCCCCCCCCCC(=O)O)C(=O)O)NC(=O)[C@H](CCC(=O)O)NC(=O)[C@H](CC(C)C)NC(=O)[C@H](CC(C)C)NC(=O)[C@@H](NC(=O)[C@H](CO)NC(=O)[C@H](Cc1ccc(O)cc1)NC(=O)[C@H](CC(=O)O)NC(=O)[C@H](CO)NC(=O)[C@@H](NC(=O)[C@H](Cc1ccccc1)NC(=O)[C@@H](NC(=O)CNC(=O)[C@H](CCC(=O)O)NC(=O)C(C)(C)NC(=O)[C@@H](N)Cc1ccc(O)cc1)[C@@H](C)O)[C@@H](C)O)[C@@H](C)CC)C(=O)N[C@@H](CCC(=O)O)C(=O)N[C@@H](Cc1c[nH]c2ccccc12)C(=O)N[C@@H](CC(C)C)C(=O)N[C@@H](CC(C)C)C(=O)N[C@@H](C)C(=O)NCC(=O)NCC(=O)N1CCC[C@H]1C(=O)N[C@@H](CO)C(=O)N[C@@H](CO)C(=O)NCC(=O)N[C@@H](C)C(=O)N1CCC[C@H]1C(=O)N1CCC[C@H]1C(=O)N1CCC[C@H]1C(=O)N[C@@H](CO)C(=O)O [Compound No. 31] (H-Y[Aib]EGTFTSDYSILLEK([εLys-εLys-γGlu-C18 diacid])QAAREFIEWLLAGGPSSGAPPPS-OH) | 0.35** kg/L |  |
| CC[C@H](C)[C@H](NC(=O)[C@H](Cc1ccccc1)NC(=O)[C@H](CCC(=O)O)NC(=O)[C@H](CCCNC(=N)N)NC(=O)[C@H](C)NC(=O)[C@H](C)NC(=O)[C@H](CCC(N)=O)NC(=O)[C@H](CCCCNC(=O)COCCOCCNC(=O)COCCOCCNC(=O)CC[C@H](NC(=O)CCCCCCCCCCCCCCCCC(=O)O)C(=O)O)NC(=O)[C@H](CCC(=O)O)NC(=O)[C@H](CC(C)C)NC(=O)[C@H](CC(C)C)NC(=O)[C@@H](NC(=O)[C@H](CO)NC(=O)[C@H](Cc1ccc(O)cc1)NC(=O)[C@H](CC(=O)O)NC(=O)[C@H](CO)NC(=O)[C@@H](NC(=O)[C@H](Cc1ccccc1)NC(=O)[C@@H](NC(=O)CNC(=O)[C@H](CCC(=O)O)NC(=O)C(C)(C)NC(=O)[C@@H](N)Cc1ccc(O)cc1)[C@@H](C)O)[C@@H](C)O)[C@@H](C)CC)C(=O)N[C@@H](CCC(=O)O)C(=O)N[C@@H](Cc1c[nH]c2ccccc12)C(=O)N[C@@H](CC(C)C)C(=O)N[C@@H](CC(C)C)C(=O)N[C@@H](C)C(=O)NCC(=O)NCC(=O)N1CCC[C@H]1C(=O)N[C@@H](CO)C(=O)N[C@@H](CO)C(=O)NCC(=O)N[C@@H](C)C(=O)N1CCC[C@H]1C(=O)N1CCC[C@H]1C(=O)N1CCC[C@H]1C(=O)N[C@@H](CO)C(=O)O [Compound No. 32] (H-Y[Aib]EGTFTSDYSILLEK([AEEA-AEEA-γGlu-C18 diacid])QAAREFIEWLLAGGPSSGAPPPS-OH) | 0.45* kg/L |  |
| CC[C@H](C)[C@H](NC(=O)[C@H](Cc1ccccc1)NC(=O)[C@H](CCC(=O)O)NC(=O)[C@H](CCCNC(=N)N)NC(=O)[C@H](C)NC(=O)[C@H](C)NC(=O)[C@H](CCC(N)=O)NC(=O)[C@H](CCC(=O)O)NC(=O)[C@H](CCC(=O)O)NC(=O)[C@H](CC(C)C)NC(=O)[C@H](CC(C)C)NC(=O)[C@H](CCCCNC(=O)[C@@H](N)CCCCNC(=O)[C@@H](N)CCCCNC(=O)CC[C@H](NC(=O)CCCCCCCCCCCCCCCCC(=O)O)C(=O)O)NC(=O)[C@H](CO)NC(=O)[C@H](Cc1ccc(O)cc1)NC(=O)[C@H](CC(=O)O)NC(=O)[C@H](CO)NC(=O)[C@@H](NC(=O)[C@H](Cc1ccccc1)NC(=O)[C@@H](NC(=O)CNC(=O)[C@H](CCC(=O)O)NC(=O)C(C)(C)NC(=O)[C@@H](N)Cc1ccc(O)cc1)[C@@H](C)O)[C@@H](C)O)C(=O)N[C@@H](CCC(=O)O)C(=O)N[C@@H](Cc1c[nH]c2ccccc12)C(=O)N[C@@H](CC(C)C)C(=O)N[C@@H](CC(C)C)C(=O)N[C@@H](C)C(=O)NCC(=O)NCC(=O)N1CCC[C@H]1C(=O)N[C@@H](CO)C(=O)N[C@@H](CO)C(=O)NCC(=O)N[C@@H](C)C(=O)N1CCC[C@H]1C(=O)N1CCC[C@H]1C(=O)N1CCC[C@H]1C(=O)N[C@@H](CO)C(=O)O [Compound No. 40] | 0.48 kg/L | 27.0 |
| CC[C@H](C)[C@H](NC(=O)[C@H](Cc1ccccc1)NC(=O)[C@H](CCC(=O)O)NC(=O)[C@H](CCCNC(=N)N)NC(=O)[C@H](C)NC(=O)[C@H](C)NC(=O)[C@H](CCC(N)=O)NC(=O)[C@H](CCC(=O)O)NC(=O)[C@H](CCC(=O)O)NC(=O)[C@H](CC(C)C)NC(=O)[C@H](CC(C)C)NC(=O)[C@@H](NC(=O)[C@H](CO)NC(=O)[C@H](Cc1ccc(O)cc1)NC(=O)[C@H](CC(=O)O)NC(=O)[C@H](CO)NC(=O)[C@@H](NC(=O)[C@H](Cc1ccccc1)NC(=O)[C@@H](NC(=O)CNC(=O)[C@H](CCC(=O)O)NC(=O)C(C)(C)NC(=O)[C@@H](N)Cc1ccc(O)cc1)[C@@H](C)O)[C@@H](C)O)[C@@H](C)CC)C(=O)N[C@@H](CCC(=O)O)C(=O)N[C@@H](Cc1c[nH]c2ccccc12)C(=O)N[C@@H](CC(C)C)C(=O)N[C@@H](CC(C)C)C(=O)N[C@@H](C)C(=O)NCC(=O)NCC(=O)N1CCC[C@H]1C(=O)N[C@@H](CO)C(=O)N[C@@H](CCCCNC(=O)[C@@H](N)CCCCNC(=O)[C@@H](N)CCCCNC(=O)CC[C@H](NC(=O)CCCCCCCCCCCCCCCCC(=O)O)C(=O)O)C(=O)NCC(=O)N[C@@H](C)C(=O)N1CCC[C@H]1C(=O)N1CCC[C@H]1C(=O)N1CCC[C@H]1C(=O)N[C@@H](CO)C(=O)O [Compound No. 43] (H-Y[Aib]EGTFTSDYSILLEEQAAREFIEWLLAGGPSK([εLys-εLys-γGlu-C18 diacid])GAPPPS-OH) | 0.22 kg/L |  |
